Experiment [1] addresses Human KRAS G12D His-tagged protein (Homo sapiens (Human), UniProt P01116, G12D). Put plainly: KRAS G12D binding assay (TR-FRET). Particulars: GDP 20 nM, GTP-Red. Here is the method: The binding ability of the compound to KRAS G12D protein was detected by TR-FRET method, and the inhibitory activity of the compound on KRAS G12D protein was evaluated. Human KRAS G12D His-tagged (Cisbio, 63ADK000CB27PEG) protein was 100-fold diluted with PPI Eu detection buffer (Cisbio, 61DB9RBF), then 5 μL of which was added to a 384-well plate and centrifuged at 2000 rpm for 40 seconds. A 10 mM concentrated stock solution of the test compound was prepared with dimethyl sulfoxide, 3-fold serially diluted, then diluted to make a working solution (0.5% DMSO) with PPI Eu detection buffer, added to a 384-well plate at 5 μL/well, with the control group added with 0.5% dimethyl sulfoxide and the highest concentration of the test compound at 10 μM, and centrifuged at 2000 rpm for 40 seconds. An 80 nM GDP standard working solution (Cisbio, 63ADK000CB27PEG) was prepared with PPI Eu detection buffer and added to a 384-well plate at 5 μL/well, with the final concentration of GDP standard working solution at 20 nM. The plate was centrifuged at 2000 rpm for 40 seconds and reacted at room temperature for 30 minutes. 1×6His Eu cryptate antibody and GTP-Red reagent (Cisbio, 63ADK000CB27PEG) were prepared with PPI Eu detection buffer, mixed in a volume ratio of 1:1, 5 μL of which was then added to a 384-well plate, centrifuged at 2000 rpm for 40 seconds, and incubated at room temperature for 30 minutes. The fluorescence intensity at 620 nm and 665 nm was detected by a microplate reader, and the inhibitory activity of the compound on KRAS G12D protein was obtained by fitting a four-parameter equation.

Experiment [2] concerns ASPC-1 human pancreatic cancer cells. Kind of experiment: Cell proliferation assay (Cell Titer-Glo), ASPC-1. Format: cell-based. The method, then: (§1) On day 1, AGS human gastric cancer cells, ASPC-1 human pancreatic cancer cells, or GP2D human colon cancer cells (Nanjing Cobioer Biosciences Co. Ltd.) in the logarithmic growth phase were taken, digested with an appropriate amount of trypsin, formulated into a single cell suspension using RPMI 1640 (Gibco) medium containing 10% fetal bovine serum and 1% penicillin-streptomycin, counted to adjust the cell density, inoculated in a 96-well plate at 95 μL/well so that there were 3000 cells per well, and then the cell culture plate was incubated in a 37° C., 5% CO2 incubator for overnight. On day 2, a 10 mM concentrated stock solution of KRAS G12D inhibitor was 3-fold serially diluted with dimethyl sulfoxide solution, and then diluted with AGS complete culture medium to make a working solution, which was added to a cell culture plate at 5 μL/well so that the compound had the highest concentration of 10 μM and the lowest concentration of 0.0015 μM, and the control group was 0.5% dimethyl sulfoxide. The cell culture plate was briefly centrifuged and then incubated in a CO2 incubator for 72 hours. On day 5, the cell culture plate was taken out, added with Cell Titer-Glo (Promega) detection reagent in each well, incubated in the dark for 10 minutes, and then luminescence was detected using a microplate reader (Tecan, Infinite M1000 Pro). Data were analyzed using Graphpad software, and curve fitting was performed with four-parameter equation and the IC50 value of the inhibitor was calculated.

Experiment [3] has as its system GP2D human colon cancer cells. Put plainly: Cell proliferation assay (Cell Titer-Glo), GP2D. To be noted: 72 hours. Format: cell-based. The method, then: as §1
Background: ATP-based viability assays read luminescence as a measure of living cells.

Experiment [4] relates to phosphorylation level of ERK1/2 in ASPC-1 human pancreatic cancer cells. Kind of experiment: pERK cell level assay (PHOSPHO-ERK1/2 HTRF kit). It counts as cell-based. Particulars: Aspc-1 cells, 4 hours incubation. The method, then:
In this experiment, the phosphorylation level of ERK1/2 in AGS human gastric cancer cells or ASPC-1 human pancreatic cancer cells was detected using PHOSPHO-ERK1/2 (THR202/TYR 204) (Cisibo, 64ERKPEH) kit, and the inhibitory effect of the compounds on KRAS G12D was investigated based on the phosphorylation level of ERK1/2.
On day 1, the density of AGS cell (ATCC) suspension was adjusted to 2.1×10^5 cells/mL, then the suspension was spread in a 96-well plate at 95 μL/well so that there were 2×10^4 cells per well, and the cell culture plate was incubated in a 37° C., 5% CO2 incubator for overnight. On day 2, the compound was serially diluted with 100% dimethyl sulfoxide, and then further diluted with a complete culture medium (RPMI-1640+10% FBS+1% PS) to make a working solution of the compound, which was added to a 96-well cell culture plate at 5 μL/well, and incubated in a 37° C., 5% CO2 incubator for 4 hours. After the incubation was completed, the culture medium was discarded, then 1× lysis buffer was added thereto at 50 μL/well, and the plate was shaken at room temperature for 30 minutes. 16 μL of lysis buffer was added to a white 384-well shallow well plate, then 4 μL of pre-formulated antibody mixture was added thereto, and the plate was sealed with microplate sealer and incubated at room temperature for overnight. On day 3, detection was performed on a TECAN M1000 Pro microplate reader using the HTRF setting, and the IC50 value of the compound was calculated.
(Time-resolved FRET reads energy transfer from a long-lived donor to a nearby acceptor.)

Experiment [5] concerns GP2D human colon cancer cells subcutaneous xenograft tumor. Kind of experiment: In vivo pharmacodynamic experiment of subcutaneous xenograft tumor model in mice of GP2D human colon cancer cells. To be noted: BALB/c nude mice; for Tumor volume (11 days, mm^3): 11 days (at grouping). The method, then: Cell culture: GP2D human colon cancer cells were maintained in monolayer culture in DMEM culture medium containing 10% fetal bovine serum in a constant temperature incubator containing 5% CO2 at 37° C. Tumor cells were passaged twice a week. Cells in the exponential growth phase were harvested and counted for inoculation.
Experimental animals: BALB/c nude mice, 6 to 8 weeks, 18 to 22 g, purchased from Jiangsu GemPharmatech Co. Ltd.
Experimental method: GP2D cell line ([…]) was inoculated subcutaneously on the right back of experimental mice. The inoculation volume of each mouse was 0.1 mL. The growth of the tumor was observed regularly. When the tumor grew to about 150 mm^3, the mice were randomly grouped according to the tumor size and body weight, and the drug was administrated according to the administration plan shown in Table 1. The body weight and tumor size were measured twice a week throughout the experiment.
tumor volume (mm^3)=0.5×(tumor long diameter×tumor short diameter^2). Tumor size calculation formula: […]

Setting [6] is: Homo sapiens, ASPC1, Aspc-1, 72 hours.

Usually IC50 stands for the concentration that inhibits the measured activity by half. High values mean lower potency, low ones higher potency.

Structures are written as SMILES.

Sequence of Human KRAS G12D His-tagged protein (P01116-2 other isoform, or with tags, fused parts or gaps G12D): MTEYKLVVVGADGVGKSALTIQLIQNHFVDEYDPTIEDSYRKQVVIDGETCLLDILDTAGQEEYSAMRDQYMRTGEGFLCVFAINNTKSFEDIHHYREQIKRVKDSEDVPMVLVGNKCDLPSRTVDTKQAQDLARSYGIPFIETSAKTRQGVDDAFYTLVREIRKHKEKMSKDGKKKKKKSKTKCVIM

As for `N#Cc1c(N)sc2ccc(F)c(-c3c(Cl)c4c5c(nc(OC[C@@]67CCCN6C[C@H](F)C7)nc5c3F)N3C[C@H]5CC[C@H](N5)[C@H]3CO4)c12` [Compound I-14, 2-amino-4-((5aS,6S,9R)-3-chloro-1-fluoro-13-(((2R,7aS)-2-fluorohexahydro-1H-pyrrolizin-7a-yl)methoxy)-5a,6,7,8,9,10-hexahydro-5H-6,9-epiminoazepino[2′,1′:3,4][1,4]oxazepino[5,6,7-de]quinazolin-2-yl)-5-fluorobenzo[b]thiophene-3-carbonitrile ditrifluoroacetate], the IC50 in experiment [1] was 8.52 nM; in experiment [2] (Aspc-1, 72 hours) it was 6.76 nM; in experiment [3], 0.124 nM; in experiment [4] (pERK1/2 (THR202/TYR204)), 1.29 nM.
Consider `Cc1ccc2sc(N)c(C#N)c2c1-c1c(Cl)c2c3c(nc(OC[C@@]45CCCN4C[C@H](F)C5)nc3c1F)N1C[C@H]3CC[C@H](N3)[C@H]1CO2` [Compound I-21, 2-amino-4-((5aS,6S,9R)-3-chloro-1-fluoro-13-(1-((2R,7aS)-2-fluorohexahydro-1H-pyrrolizin-7a-yl)methoxy)-5a,6,7,8,9,10-hexahydro-5H-6,9-epiminoazepino[2′,1′:3,4][1,4]oxazepino[5,6,7-de]quinazolin-2-yl)-5-methylbenzo[b]thiophene-3-carbonitrile ditrifluoroacetate], for which the IC50 was 9.76 nM in experiment [1] and 16.9 nM in experiment [2] (setting [6]).
Turning to `[2H]C1([2H])CC[C@@]2(C([2H])([2H])Oc3nc4c5c(c(Cl)c(-c6cccc7sc(N)c(C#N)c67)c(F)c5n3)OC[C@@H]3[C@@H]5CC[C@H](CN43)N5)C[C@@H](F)CN12` (single isomer, unassigned) [Compound I-27-2], the IC50 in experiment [1] was 1.4 nM; in experiment [3] (Homo sapiens), 0.133 nM.
As to `C#Cc1c(F)ccc2cc(O)cc(-c3ncc4c(N5CC6CCC(C5)N6)nc(OC[C@@]56CCCN5C[C@H](F)C6)nc4c3F)c12` [Ref. A, MRTX1133, reference compound], in experiment [5] (3 mg/kg i.p. twice a day), the “Tumor volume (11 days, mm^3)” value is listed as 139.25 ± 17.31 mm^3; the “Tumor volume (21 days, mm^3)” value was determined as 137.35 ± 18.79 mm^3; the “T/C (%)” value was determined as 30.3%; the “Tumor regression rate (%)” value is given as −1.4%. Besides, in experiment [5] (10 mg/kg i.p. twice a day), the “Tumor volume (11 days, mm^3)” value is given as 139.90 ± 20.43 mm^3; the “Tumor volume (21 days, mm^3)” value is given as 79.77 ± 13.97 mm^3; the “T/C (%)” value came out at 17.6%; the “Tumor regression rate (%)” value was −43.0%.
For the molecule `[2H]C([2H])(Oc1nc2c3c(c(Cl)c(-c4cccc5sc(N)c(C#N)c45)c(F)c3n1)OC[C@@H]1[C@@H]3CC[C@H](CN21)N3)[C@@]12CCCN1C[C@H](F)C2` (single isomer, unassigned) [Compound I-24-2], the IC50 in experiment [1] worked out at 1.75 nM; in experiment [2] (setting [6]), 6.66 nM.
`N#Cc1c(N)sc2cccc(-c3c(Cl)c4c5c(nc(OC[C@@]67CCCN6C[C@H](F)C7)nc5c3F)N3C[C@H]5CC[C@H](N5)[C@H]3CO4)c12` [Compound I-7, 2-amino-4-((5aS,6S,9R)-3-chloro-1-fluoro-13-(((2R,7aS)-2-fluorohexahydro-1H-pyrrolizin-7a-yl)methoxy)-5a,6,7,8,9,10-hexahydro-5H-6,9-epiminoazepino[2′,1′:3,4][1,4]oxazepino[5,6,7-de]quinazolin-2-yl)benzo[b]thiophene-3-carbonitrile ditrifluoroacetate]: the IC50 in experiment [1] came to 6.59 nM; in experiment [2] (Aspc-1, 72 hours), 5.53 nM; in experiment [4] (pERK1/2 (THR202/TYR204)) it was 1.59 nM.
For `N#Cc1c(N)sc2c1C(c1c(Cl)c3c4c(nc(OC[C@@]56CCCN5C[C@H](F)C6)nc4c1F)N1C[C@H]4CC[C@H](N4)[C@H]1CO3)=CCC2` [Compound I-25, 2-amino-4-((5aS,6S,9R)-3-chloro-1-fluoro-13-(((2R,7aS)-2-fluorohexahydro-1H-pyrrolizin-7a-yl)methoxy)-5a,6,7,8,9,10-hexahydro-5H-6,9-epiminoazepino[2′,1′:3,4][1,4]oxazepino[5,6,7-de]quinazolin-2-yl)-6,7-dihydrobenzo[b]thiophene-3-carbonitrile ditrifluoroacetate], the concentration for half-maximal inhibition (IC50) in experiment [1] is 12 nM; in experiment [2] (setting [6]), 25.8 nM.
On the same counts, the results for `[2H]C1([2H])CC[C@@]2(COc3nc4c5c(c(Cl)c(-c6cccc7sc(N)c(C#N)c67)c(F)c5n3)OC[C@@H]3[C@@H]5CC[C@H](CN43)N5)C[C@@H](F)CN12` (single isomer, unassigned) [Compound I-20-2] are 1.89 nM and 6.49 nM.
With `CC(Oc1nc2c3c(c(Cl)c(-c4cccc5sc(N)c(C#N)c45)c(F)c3n1)OC[C@@H]1[C@@H]3CC[C@H](CN21)N3)[C@@]12CCCN1C[C@H](F)C2` (stereo partly drawn) [Compound I-17, 2-amino-4-((5aS,6S,9R)-3-chloro-1-fluoro-13-(1-((2R,7aS)-2-fluorohexahydro-1H-pyrrolizin-7a-yl)ethoxy)-5a,6,7,8,9,10-hexahydro-5H-6,9-epiminoazepino[2′,1′:3,4][1,4]oxazepino[5,6,7-de]quinazolin-2-yl)benzo[b]thiophene-3-carbonitrile ditrifluoroacetate], the IC50 in experiment [1] worked out at 7.77 nM; in experiment [2] (Aspc-1, 72 hours) it was 31.9 nM; in experiment [3] it was 0.497 nM; in experiment [4] (pERK1/2 (THR202/TYR204)), 5.58 nM.
For the molecule `Nc1nc2c(-c3c(Cl)c4c5c(nc(OC[C@@]67CCCN6C[C@H](F)C7)nc5c3F)N3C[C@H]5CC[C@H](N5)[C@H]3CO4)cccc2s1` (single isomer, unassigned) [Compound I-12-2], the IC50 in experiment [1] stood at 3.01 nM; in experiment [4] (Homo sapiens, ASPC1, pERK1/2 (THR202/TYR204)), 8.23 nM.

Source of the values: patent publication US20240327425A1, “KRAS G12D INHIBITOR AND USE THEREOF” (SHANGHAI DE NOVO PHARMATECH CO., LTD., priority 2021, published 2024).
